Results from ChEMBL document CHEMBL1127958, “Dual metalloprotease inhibitors. III. utilization of bicyclic and monocyclic diazepinone based mercaptoacetyls” (Bioorg Med Chem Lett, 1994).

Legend:
[1] = test system: Rattus norvegicus; experiment: In vivo effective dose against angiotensin I induced pressor response after intravenous administration in normotensive rats; type: functional
[2] = molecular target: Angiotensin-converting enzyme (Rattus norvegicus) (UniProt P47820); experiment: In vitro inhibitory activity against angiotensin converting enzyme (ACE) in rat was determined; details: read-out: I50
Sequence of Angiotensin-converting enzyme (Rattus norvegicus) (P47820 whole entry, looked up): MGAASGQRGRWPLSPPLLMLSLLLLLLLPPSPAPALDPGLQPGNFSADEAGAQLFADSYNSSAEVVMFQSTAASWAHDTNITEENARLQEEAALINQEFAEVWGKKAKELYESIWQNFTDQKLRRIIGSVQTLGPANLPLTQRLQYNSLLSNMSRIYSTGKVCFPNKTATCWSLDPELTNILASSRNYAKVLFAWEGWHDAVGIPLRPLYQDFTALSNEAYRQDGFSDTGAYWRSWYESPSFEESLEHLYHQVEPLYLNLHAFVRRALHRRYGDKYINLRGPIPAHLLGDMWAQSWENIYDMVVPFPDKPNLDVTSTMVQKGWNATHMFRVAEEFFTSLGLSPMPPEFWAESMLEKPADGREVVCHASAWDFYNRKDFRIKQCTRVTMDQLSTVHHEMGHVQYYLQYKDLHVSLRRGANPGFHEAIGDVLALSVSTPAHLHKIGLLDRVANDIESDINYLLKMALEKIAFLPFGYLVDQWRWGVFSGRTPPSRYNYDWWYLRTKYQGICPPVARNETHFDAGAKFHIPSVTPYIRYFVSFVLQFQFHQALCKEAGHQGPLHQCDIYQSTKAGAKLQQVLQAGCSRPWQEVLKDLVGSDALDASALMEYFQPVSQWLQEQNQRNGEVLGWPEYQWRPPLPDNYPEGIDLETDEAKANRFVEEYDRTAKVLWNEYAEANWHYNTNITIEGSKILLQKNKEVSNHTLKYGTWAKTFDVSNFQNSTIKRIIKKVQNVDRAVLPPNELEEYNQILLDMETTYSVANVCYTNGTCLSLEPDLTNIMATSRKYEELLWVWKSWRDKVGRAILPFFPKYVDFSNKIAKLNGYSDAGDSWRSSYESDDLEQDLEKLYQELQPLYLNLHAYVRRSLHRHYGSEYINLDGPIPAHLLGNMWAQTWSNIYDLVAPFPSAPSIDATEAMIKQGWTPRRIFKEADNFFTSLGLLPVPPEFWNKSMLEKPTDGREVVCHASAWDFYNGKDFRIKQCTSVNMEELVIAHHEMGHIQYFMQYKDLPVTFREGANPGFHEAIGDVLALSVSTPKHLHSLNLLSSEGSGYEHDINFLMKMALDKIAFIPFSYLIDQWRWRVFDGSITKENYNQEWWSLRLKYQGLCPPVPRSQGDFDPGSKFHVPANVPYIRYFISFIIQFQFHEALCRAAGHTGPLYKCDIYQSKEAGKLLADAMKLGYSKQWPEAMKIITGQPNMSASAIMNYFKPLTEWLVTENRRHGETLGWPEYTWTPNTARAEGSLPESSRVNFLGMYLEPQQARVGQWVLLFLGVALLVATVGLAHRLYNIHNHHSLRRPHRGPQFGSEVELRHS

[3] = molecular target: Neprilysin (Homo sapiens, UniProt P08473); experiment: In vitro inhibitory activity against neutral endopeptidase (NEP) was determined; details: read-out: I50
Sequence of Neprilysin (P08473 whole entry): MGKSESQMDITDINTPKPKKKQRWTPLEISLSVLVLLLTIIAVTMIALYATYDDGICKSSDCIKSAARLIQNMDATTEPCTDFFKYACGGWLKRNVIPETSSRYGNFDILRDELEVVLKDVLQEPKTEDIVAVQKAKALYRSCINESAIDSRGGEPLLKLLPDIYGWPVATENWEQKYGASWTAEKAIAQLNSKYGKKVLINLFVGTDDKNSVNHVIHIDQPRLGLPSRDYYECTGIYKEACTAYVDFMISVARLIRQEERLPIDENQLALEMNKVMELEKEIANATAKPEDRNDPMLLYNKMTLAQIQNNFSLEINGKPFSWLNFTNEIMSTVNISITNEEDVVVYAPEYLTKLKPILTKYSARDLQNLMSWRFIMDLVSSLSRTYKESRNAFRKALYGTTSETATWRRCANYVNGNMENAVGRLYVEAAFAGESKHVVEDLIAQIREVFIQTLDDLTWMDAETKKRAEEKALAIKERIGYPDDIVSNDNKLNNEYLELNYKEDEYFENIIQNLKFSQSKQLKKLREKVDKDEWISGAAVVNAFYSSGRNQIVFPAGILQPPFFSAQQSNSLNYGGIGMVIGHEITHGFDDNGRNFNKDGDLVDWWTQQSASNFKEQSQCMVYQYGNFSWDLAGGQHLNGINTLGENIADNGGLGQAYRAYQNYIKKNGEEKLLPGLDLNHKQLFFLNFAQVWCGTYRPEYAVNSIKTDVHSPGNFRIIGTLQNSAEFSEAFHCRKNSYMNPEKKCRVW

| Compound | IC50 [2] [nM] | IC50 [3] [nM] | ED50 [1] [µmol/kg] |
| --- | --- | --- | --- |
| O=C(O)CN1C(=O)[C@@H](NC(=O)[C@@H](S)Cc2ccccc2)CCc2ccccc21 | 12 |  | 0.02 |
| CN1C(=O)CC[C@H](NC(=O)[C@@H](S)Cc2ccccc2)C(=O)N1CC(=O)O |  | 55 | 0.13 |
| O=C(O)CN1NCCC[C@H](NC(=O)[C@@H](S)Cc2ccccc2)C1=O |  | 486 |  |
| CCCN1CCC[C@H](NC(=O)[C@@H](S)Cc2ccccc2)C(=O)N1CC(=O)O |  | 1490 |  |
| CCCN1C(=O)CC[C@H](NC(=O)[C@@H](S)Cc2ccccc2)C(=O)N1CC(=O)O |  | 1920 |  |
| CN1CCC[C@H](NC(=O)[C@@H](S)Cc2ccccc2)C(=O)N1CC(=O)O |  | 484 |  |

More lines, main results first:

| IC50 [2] [nM] | IC50 [3] [nM] | Compound | ED50 [1] [µmol/kg] |
| --- | --- | --- | --- |
|  | 140 | O=C(N[C@H]1CCC(=O)N2CC[C@@H](C(=O)O)N2C1=O)[C@@H](S)Cc1ccccc1 |  |
|  | 3 | O=C(N[C@H]1CCCN2CCC[C@@H](C(=O)O)N2C1=O)[C@@H](S)Cc1ccccc1 | 0.01 |
|  | 22 | O=C(N[C@H]1CCCN2CC[C@@H](C(=O)O)N2C1=O)[C@@H](S)Cc1ccccc1 | 0.12 |
|  | 16 | O=C(N[C@H]1CCC(=O)N2CCC[C@@H](C(=O)O)N2C1=O)[C@@H](S)Cc1ccccc1 | 0.23 |
